pIC50: −log10 of the molar value. Where a name gives a salt, the structure may show the parent alone.
Columns and labels:
KB [1] = experiment: Cytotoxicity against human KB cells by SRB assay; type: functional, cell-based
HL-60 [2] = experiment: Cytotoxicity against human HL60 cells by MTT assay; type: functional, cell-based
A549 [3] = experiment: Cytotoxicity against human A549 cells by SRB assay; type: functional, cell-based
HT-29 [4] = experiment: Cytotoxicity against human HT-29 cells by SRB assay; type: functional, cell-based
A549 [5] = experiment: Cytotoxicity against human A549 cells assessed as inhibition of cell viability at 10 uM by SRB assay relative to control; type: functional
KB [6] = experiment: Cytotoxicity against human KB cells assessed as inhibition of cell viability at 10 uM by SRB assay relative to control; type: functional
HT-29 [7] = experiment: Cytotoxicity against human HT-29 cells assessed as inhibition of cell viability at 10 uM by SRB assay relative to control; type: functional
HL-60 [8] = experiment: Cytotoxicity against human HL60 cells assessed as inhibition of cell viability at 10 uM by MTT assay relative to control; type: functional

Row | SMILES | pIC50 (KB [1]) | pIC50 (HL-60 [2]) | pIC50 (A549 [3]) | pIC50 (HT-29 [4]) | inhibition at 10 µM (A549 [5]) [%] | inhibition at 10 µM (KB [6]) [%] | inhibition at 10 µM (HT-29 [7]) [%] | inhibition at 10 µM (HL-60 [8]) [%]
1 | Cc1cc(=O)cc2c3c1[C@@H]1O[C@H]4C5OC(=O)C(CC2)([C@@H]4C)[C@H]3[C@@]51O | 6.02 | 6.33 | 5.88 | 6.09 |  |  |  | 
2 | Cc1cc(=O)cc2c3c1C[C@@H]1[C@@H]4C[C@@H](C)C(CC2)(C(=O)O4)[C@]31O | 5.58 | 5.91 | 5.22 | 5.49 |  |  |  | 
3 | C[C@@H]1C[C@@H]2OC(=O)C13CC[C@@]14C[C@@H](OC1=O)[C@H](O)[C@](C)(O)C1=C4[C@@H]3[C@@H]2C1 |  |  |  |  | < 50 | < 50 | < 50 | < 50
4 | C=C1[C@H](O)CC[C@@]2(CO)CCC34C(=O)O[C@@H](C[C@H]3C)[C@H]3C[C@H]1[C@@H]2[C@H]34 |  |  |  |  | < 50 | < 50 | < 50 | < 50
5 | Cc1ccc2c3c1C[C@@H]1[C@@H]4C[C@@H](C)C(CC2=O)(C(=O)O4)[C@]31O |  |  |  |  | < 50 | < 50 | < 50 | < 50
6 | C[C@@H]1C[C@@H]2OC(=O)C13CC[C@]14C[C@H](C=C(CO)[C@H]5C[C@H]2[C@H]3[C@@H]51)OC4=O |  |  |  |  | < 50 | < 50 | < 50 | < 50
7 | Cc1cc(=O)cc2c3c1C[C@@H]1[C@@H]4C[C@@H](C)C(C=C2)(C(=O)O4)[C@]31O |  |  |  |  | < 50 | < 50 | < 50 | < 50
8 | Cc1c(O)cc2c3c1[C@@H]1O[C@H]4C5OC(=O)C(CC2)([C@@H]4C)[C@H]3[C@@H]51 |  |  |  |  | < 50 | < 50 | < 50 | < 50
9 | CC1=CCC[C@@]2(CO)CCC34C(=O)O[C@@H](C[C@H]3C)[C@H]3C[C@H]1[C@@H]2[C@H]34 |  |  |  |  | < 50 | < 50 | < 50 | < 50
10 | COC(=O)c1cc(C)c2c3c1C(=O)CC14C(=O)O[C@@H](C[C@H]1C)[C@@H](C2)[C@@]34O |  |  |  |  | < 50 | < 50 | < 50 | < 50
11 | Cc1c(O)cc2c3c1C[C@@H]1[C@@H]4C[C@@H](C)C(CC2)(C(=O)O4)[C@H]31 |  |  |  |  | < 50 | < 50 | < 50 | < 50
12 | CC1=C[C@H]2C[C@]3(CCC45C(=O)O[C@@H](C[C@H]4C)[C@H]4C[C@H]1[C@@H]3[C@H]45)CO2 |  |  |  |  | < 50 | < 50 | < 50 | < 50
13 | COc1cccc2c1C(=O)c1c(O)c3c(c(O)c1C2=O)C[C@@](O)(C(=O)CO)C[C@@H]3O[C@H]1C[C@H](N)[C@H](O)[C@H](C)O1 [DOXORUBICIN HYDROCHLORIDE] | 6.24 | 7.12 |  | 6.25 |  |  |  | 
